From ChEMBL document CHEMBL6092158, “Green synthesis of neuroprotective spirocyclic chalcone derivatives and their role in protecting against traumatic optic nerve injury” (Eur J Med Chem, 2024)
The source made the active and inactive calls. The calls are words filed in the database; no cut-off is given here.

Tests used:
R28 [1] = assay: Cytoprotective activity against glutamate-induced cytotoxicity in rat R28 cells assessed as increase in cell viability at 10 uM incubated for 24 hrs in presence of glutamate by MTT assay; type: functional, cell-based
R28 [2] = assay: Cytoprotective activity against hydrogen peroxide-induced cytotoxicity in rat R28 cells assessed as increase in cell viability at 10 uM preincubated for 24 hrs followed by incubation with H2O2 for 24 hrs by MTT assay; type: functional, cell-based
[3] = Acute toxicity in C57BL/6J mouse assessed as heart damage at 500 mg/kg, ip and measured on day 14 by Hematoxylin-Eosin staining based analysis; type: organism-based; conditions: in vivo, 336 h, time 14 day
Mus musculus [4] = assay: Neuroprotective activity against optic nerve crush C57BL/6J mouse model at 1 ug/ul administered into vitreous cavity immediately after ONC surgery and measured on day 7 post-surgery by optical coherence examination analysis; type: functional, organism-based; conditions: dose 1.0 µg/microL, route ivt, time 7.0 day
[5] = Cytotoxicity against rat R28 cells assessed as effect on cell viability by MTT assay; type: toxicity, cell-based
R28 [6] = assay: Cytoprotective activity against oxidative glutamate-induced cytotoxicity in rat R28 cells assessed as increase in cell viability at 1.25 to 2.5 uM incubated for 24 hrs by MTT assay; type: functional, cell-based; conditions: dose 1.25-2.5 µM
Cortical neurone [7] = assay: Cytoprotective activity against oxidative glutamate-induced cytotoxicity in rat primary cortical neuronal cells assessed as increase in cell viability at 1.25 uM incubated for 24 hrs by CCK8 assay; type: functional, cell-based
R28 [8] = assay: Inhibition of glutamate-induced apoptosis in rat R28 cells assessed as decrease in number of PI-positive cells at 5 uM incubated for 24 hrs by Hoechst33342/PI staining based fluorescence microscopic analysis; type: functional, cell-based
[9] = Inhibition of glutamate-induced apoptosis in rat R28 cells assessed as viable cells incubated for 24 hrs by AnnexinV-FITC/PI staining based flow cytometry (reference value: 28.81%); type: functional
[10] = Inhibition of glutamate-induced apoptosis in rat R28 cells assessed as early apoptotic cells incubated for 24 hrs by AnnexinV-FITC/PI staining based flow cytometry (reference value: 69.04%); type: functional; set-up: scale not given: the % may be the effect or the level left
[11] = Inhibition of glutamate-induced apoptosis in rat R28 cells assessed as late apoptotic cells incubated for 24 hrs by AnnexinV-FITC/PI staining based flow cytometry (reference value: 3.47%); type: functional; set-up: scale not given: the % may be the effect or the level left
[12] = Inhibition of glutamate-induced apoptosis in rat R28 cells assessed as necrotic cells incubated for 24 hrs by AnnexinV-FITC/PI staining based flow cytometry (reference value: 0.68%); type: functional; set-up: scale not given: the % may be the effect or the level left
[13] = Induction of apoptosis in rat R28 cells assessed as viable cells incubated for 24 hrs by AnnexinV-FITC/PI staining based flow cytometry (reference value: 91.34%); type: toxicity, cell-based; conditions: read-out: Activity
[14] = Induction of apoptosis in rat R28 cells assessed as early apoptotic cells incubated for 24 hrs by AnnexinV-FITC/PI staining based flow cytometry (reference value: 1.53%); type: toxicity, cell-based; conditions: r28, 24 h
[15] = Induction of apoptosis in rat R28 cells assessed as late apoptotic cells incubated for 24 hrs by AnnexinV-FITC/PI staining based flow cytometry (reference value: 4.59%); type: toxicity, cell-based; conditions: r28, 24 h
[16] = Induction of apoptosis in rat R28 cells assessed as necrotic cells incubated for 24 hrs by AnnexinV-FITC/PI staining based flow cytometry (reference value: 2.54%); type: toxicity, cell-based; conditions: r28, 24 h
Mus musculus [17] = assay: Neuroprotective activity against optic nerve crush C57BL/6J mouse model assessed as increase in retinal nerve fibre layer thickness complex at 1 ug/ul administered into vitreous cavity immediately after ONC surgery and measured on day 7 post-surgery by optical coherence examination analysis; type: functional, organism-based; conditions: dose 1.0 µg/microL, route ivt, time 7.0 day
Mus musculus [18] = assay: Neuroprotective activity against optic nerve crush C57BL/6J mouse model assessed as increase in ganglion cell layer complex at 1 ug/ul administered into vitreous cavity immediately after ONC surgery and measured on day 7 post-surgery by optical coherence examination analysis; type: functional, organism-based; conditions: dose 1.0 µg/microL, route ivt, time 7.0 day
Mus musculus [19] = assay: Neuroprotective activity against optic nerve crush C57BL/6J mouse model assessed as increase in inner plexiform layer complex at 1 ug/ul administered into vitreous cavity immediately after ONC surgery and measured on day 7 post-surgery by optical coherence examination analysis; type: functional, organism-based; conditions: dose 1.0 µg/microL, route ivt, time 7.0 day
Mus musculus [20] = assay: Neuroprotective activity against optic nerve crush C57BL/6J mouse model assessed as increase in P1-N2 wave amplitude of optic nerve at 1 ug/ul administered into vitreous cavity immediately after ONC surgery and measured on day 7 post-surgery by F-EVP based electrophysiological analysis; type: functional, organism-based; conditions: dose 1.0 µg/microL, route ivt, time 7.0 day
Mus musculus [21] = assay: Neuroprotective activity against optic nerve crush C57BL/6J mouse model assessed as restoration of P1 latency of optic nerve at 1 ug/ul administered into vitreous cavity immediately after ONC surgery and measured on day 7 post-surgery by […] based electrophysiological analysis; type: functional, organism-based; conditions: dose 1.0 µg/microL, route ivt, time 7.0 day
R28 [22] = assay: Antioxidant activity in rat R28 cells assessed as inhibition of glutamate-induced reactive oxygen species generation by measuring decrease in fluorescence intensity at 5 uM incubated for 24 hrs by DCFH-DA staining based immunofluorescence analysis; type: functional, cell-based
[23] = Antioxidant activity assessed as DPPH radical scavenging activity at 20 uM by DPPH assay; type: functional
[24] = Antioxidant activity assessed as DPPH radical scavenging activity at 100 uM by DPPH assay; type: functional
R28 [25] = assay: Antioxidant activity in rat R28 cells assessed as inhibition of glutamate-induced oxidative stress by measuring decrease in intracellular MDA level; type: functional, cell-based
[26] = Antioxidant activity in rat R28 cells assessed as inhibition of glutamate-induced reactive oxygen species generation at 5 uM incubated for 24 hrs by DCFH-DA staining based flow cytometry (reference value: 16.61%); type: functional; set-up: scale not given: the % may be the effect or the level left
[27] = Effect on reactive oxygen species generation in rat R28 cells at 5 uM incubated for 24 hrs by DCFH-DA staining based flow cytometry (reference value: 0.49%); type: toxicity, cell-based; conditions: r28, 24 h
Cortical neurone [28] = assay: Antioxidant activity in rat primary cortical neuron assessed as inhibition of glutamate-induced reactive oxygen species generation at 5 uM incubated for 24 hrs by DCFH-DA staining based immunofluorescence analysis; type: functional, cell-based
Mus musculus [29] = assay: Inhibition of glutamate-induced JNK phosphorylation in retinal tissue of optic nerve crush C57BL/6J mouse model at 1 ug/ul administered into vitreous cavity immediately after ONC surgery and measured on day 7 post-surgery by western blot analysis; type: functional; conditions: dose 1.0 µg/microL, route ivt, time 7.0 day
Mus musculus [30] = assay: Effect on total JNK level in retinal tissue of optic nerve crush C57BL/6J mouse model at 1 ug/ul administered into vitreous cavity immediately after ONC surgery and measured on day 7 post-surgery by western blot analysis; type: functional; conditions: dose 1.0 µg/microL, route ivt, time 7.0 day
[31] = Acute toxicity in C57BL/6J mouse assessed as animal activity level at 500 mg/kg, ip; type: organism-based; conditions: in vivo
[32] = Acute toxicity in C57BL/6J mouse assessed as body weight at 500 mg/kg, ip measured for 14 days; type: organism-based; conditions: in vivo, 336 h, time 14 day
[33] = Acute toxicity in C57BL/6J mouse assessed as heart weight at 500 mg/kg, ip and measured on day 14; type: organism-based; conditions: in vivo, 336 h, time 14 day
[34] = Acute toxicity in C57BL/6J mouse assessed as liver weight at 500 mg/kg, ip and measured on day 14; type: organism-based; conditions: in vivo, 336 h, time 14 day
[35] = Acute toxicity in C57BL/6J mouse assessed as spleen weight at 500 mg/kg, ip and measured on day 14; type: organism-based; conditions: in vivo, 336 h, time 14 day
[36] = Acute toxicity in C57BL/6J mouse assessed as lungs weight at 500 mg/kg, ip and measured on day 14; type: organism-based; conditions: in vivo, 336 h, time 14 day
[37] = Acute toxicity in C57BL/6J mouse assessed as kidney weight at 500 mg/kg, ip and measured on day 14; type: organism-based; conditions: in vivo, 336 h, time 14 day
[38] = Acute toxicity in C57BL/6J mouse assessed as ALT level in serum at 500 mg/kg, ip and measured on day 14; type: organism-based; conditions: in vivo, 336 h, time 14 day
[39] = Acute toxicity in C57BL/6J mouse assessed as AST level in serum at 500 mg/kg, ip and measured on day 14; type: organism-based; conditions: in vivo, 336 h, time 14 day
[40] = Acute toxicity in C57BL/6J mouse assessed as liver damage at 500 mg/kg, ip and measured on day 14 by Hematoxylin-Eosin staining based analysis; type: organism-based; conditions: in vivo, 336 h, time 14 day
[41] = Acute toxicity in C57BL/6J mouse assessed as spleen damage at 500 mg/kg, ip and measured on day 14 by Hematoxylin-Eosin staining based analysis; type: organism-based; conditions: in vivo, 336 h, time 14 day
[42] = Acute toxicity in C57BL/6J mouse assessed as lung damage at 500 mg/kg, ip and measured on day 14 by Hematoxylin-Eosin staining based analysis; type: organism-based; conditions: in vivo, 336 h, time 14 day
[43] = Acute toxicity in C57BL/6J mouse assessed as kidney damage at 500 mg/kg, ip and measured on day 14 by Hematoxylin-Eosin staining based analysis; type: organism-based; conditions: in vivo, 336 h, time 14 day
[44] = Acute toxicity in C57BL/6J mouse assessed as retinal damage at 500 mg/kg, ip and measured on day 14 by Hematoxylin-Eosin staining based analysis; type: organism-based; conditions: in vivo, 336 h, time 14 day

For `CN1C[C@H](c2ccc(O)c(O)c2)[C@@H](C(=O)c2ccc(O)cc2)[C@]12C(=O)Nc1ccccc12`, the Activity (R28 [1]) was “Active” and the Activity (R28 [2]) was “Active”.

For `CN1C[C@H](c2ccc(O)c(O)c2)[C@@H](C(=O)c2cc(C(F)(F)F)cc(C(F)(F)F)c2)[C@]12C(=O)Nc1ccccc12`, the Activity (R28 [1]) was “inactive” and the Activity (R28 [2]) was “inactive”.

In the case of `CN1C[C@H](c2ccc(O)c(O)c2)[C@@H](C(=O)c2cc(F)cc(F)c2)[C@]12C(=O)Nc1ccccc12`, the Activity (R28 [1]) is reported as “Active”, the Activity (R28 [2]) is reported as “Active” and the Activity [3] is reported as “Non-toxic”. The Activity (Mus musculus [4]) was “Active”, the Activity [5] was “Toxic” and the Activity (R28 [6]) was “Active”. The Activity (Cortical neurone [7]) was “Active”, the inhibition (R28 [8]) was “Active” and the Activity [9] was 89.77%. It also gave an Activity [10] of 1.63%, an Activity [11] of 6.05% and an Activity [12] of 2.54%. For the same molecule, the viability at 24 h [13] was 87.5%, the Activity [14] was 1.94% and the Activity [15] was 8.4%. For the same molecule, the Activity [16] was 2.13%, the Activity (Mus musculus [17]) was “Active” and the Activity (Mus musculus [18]) was “Active”. The Activity (Mus musculus [19]) was “Active”, the Activity (Mus musculus [20]) was “Active” and the Activity (Mus musculus [21]) was “Active”. The Activity (R28 [22]) was “Active”, the Activity [23] was “Active” and the inhibition [24] was 95%. For the same molecule, the Activity (R28 [25]) was “Active”, the Activity [26] was 4.62% and the Activity [27] was 2.05%. The Activity (Cortical neurone [28]) was “Active”, the inhibition (Mus musculus [29]) was “Active” and the Activity (Mus musculus [30]) was “inactive”. For the same molecule, the Activity [31] was “Non-toxic”, the Activity [32] was “Non-toxic” and the Activity [33] was “Non-toxic”. For the same molecule, the Activity [34] was “Non-toxic”, the Activity [35] was “Non-toxic” and the Activity [36] was “Non-toxic”. For the same molecule, the Activity [37] was “Non-toxic”, the Activity [38] was “Non-toxic” and the Activity [39] was “Non-toxic”. For the same molecule, the Activity [40] was “Non-toxic”, the Activity [41] was “Non-toxic” and the Activity [42] was “Non-toxic”. The Activity [43] was “Non-toxic” and the Activity [44] was “Non-toxic”.

For `CN1C[C@H](c2ccc(O)c(O)c2)[C@@H](C(=O)c2ccccc2)[C@]12C(=O)Nc1ccccc12`, the Activity (R28 [1]) was “Active” and the Activity (R28 [2]) was “Active”.

For `CN1C[C@H](c2ccc(O)c(O)c2)[C@@H](C(=O)c2cccc(Br)c2)[C@]12C(=O)Nc1ccccc12`, the Activity (R28 [1]) was “Active” and the Activity (R28 [2]) was “Active”.

For `CN1C[C@H](c2ccc(O)c(O)c2)[C@@H](C(=O)c2ccc([N+](=O)[O-])cc2)[C@]12C(=O)Nc1ccccc12`, the Activity (R28 [1]) was “inactive” and the Activity (R28 [2]) was “inactive”.

With `COc1ccc(C(=O)[C@@H]2[C@@H](c3ccc(O)c(O)c3)CN(C)[C@@]23C(=O)Nc2ccccc23)cc1` the Activity (R28 [1]) was “Active” and the Activity (R28 [2]) was “Active”.

For `COc1ccc(C(=O)[C@@H]2[C@@H](c3ccc(O)c(O)c3)CN(C)[C@@]23C(=O)Nc2ccccc23)cc1OC`, the Activity (R28 [1]) was “Active” and the Activity (R28 [2]) was “Active”.

With `CN1C[C@H](c2ccc(O)c(O)c2)[C@@H](C(=O)c2ccc(S(C)(=O)=O)cc2)[C@]12C(=O)Nc1ccccc12` the Activity (R28 [1]) was “inactive” and the Activity (R28 [2]) was “inactive”.

With `CN1C[C@H](c2ccc(O)c(O)c2)[C@@H](C(=O)c2cccc(Cl)c2)[C@]12C(=O)Nc1ccccc12` the Activity (R28 [1]) was “Active” and the Activity (R28 [2]) was “Active”.

With `CN1C[C@H](c2ccc(O)c(O)c2)[C@@H](C(=O)c2ccccc2C(F)(F)F)[C@]12C(=O)Nc1ccccc12` the Activity (R28 [1]) was “inactive” and the Activity (R28 [2]) was “inactive”.

In the case of `COc1cc(C(=O)[C@@H]2[C@@H](c3ccc(O)c(O)c3)CN(C)[C@@]23C(=O)Nc2ccccc23)cc(OC)c1OC`, the Activity (R28 [1]) is reported as “Active” and the Activity (R28 [2]) is reported as “Active”.
